Results taken from patent US6635631B2, “Iron compounds, compositions, methods of making the same and uses thereof” (Vitra Pharmaceuticals, Ltd., priority 1995, dated 2003).
“And” between values parts separate entries of the source, which are not always exact repeats. Equal entries are not always repeated.

Assays:
[1] = Effect on iron absorption in vivo of maltol as a diet supplement (liver iron); design: species or system Male Wistar rats; conditions: for Liver Fe: rats fed maltol 50 mg/kg by gavage on alternate days, individual animals 1-6; for Liver Fe, MEAN: rats fed maltol 50 mg/kg
Procedure: Male Wistar rats, housed in polyethylene cages, initially weighing 70-80 grams were given a normal powder diet and water ad libitum for two weeks prior to treatment with maltol by gavage. Provided the animal was showing normal growth, treatment by gavage with maltol at 50 mg/kg was commenced and continued on alternate days for a further two weeks. At the end of the experimental period the animals were sacrificed, the livers were excised, mass determined and the sub cellular fraction assayed for iron be electrothermal atomic absorption. […]. The iron content of the diet is 240 mg/kg of food and the daily consumption of the rats is approximately 20 g which contains 4.8 mg as iron. The content of maltol in the diet is approximately 10 mg which is a ratio of iron/maltol of 4.8/10.0 which is approximately a 1:1 molar ratio (actual 1:1 is 4.5/10/0).
The liver content and concentration of iron in the sub cellular fraction were compared with the control group fed the same diet over the month, but without maltol.

[2] = In vivo test in man: ICPOES analysis for iron in serum; conditions: for Iron concentration [Fe] (s.d.) in serum: man, with 10% excess maltol
Description: A composition of the invention comprising ferric maltol chloride ([FeM]^++Cl2−) ie. a 1:1 iron:hydroxypyrone complex together with a small (10%) excess of moltol (uncomplexed hydroxypyrone).

[3] = In vivo test in man: plasma iron concentration by ICP after oral ferric monomaltol citrate; conditions: time 0 mins (resting value)
Procedure: A composition of the invention comprising ferric monomaltol citrate with 30 mg as iron in 5 ml of water was administered orally to a person who had fasted for 24 hours. The plasma iron concentration in the subject's bloodstream was determined by the ICP [inductively coupled plasma, (Machine Jobin Yvonne Modol 20)] technique which determines the emission spectra of elements by optical spectrometry when samples are subjected to a very hot flame. The technique is very sensitive and the accuracy and precision is less than +or −1%.

[4] = pH and stability of solutions of the complexes (description); type: physicochemical; conditions: for stability in solution: buffered pH of 7
[5] = Solubility of iron complexes and mixtures (description); type: physicochemical; conditions: for solubility relative to the 1:3 iron/hydroxypyrone molar ratio complex: 1:1 complexes
[6] = Tests to determine optimum pH and molar ratios of iron:hydroxypyrone for synthesis of the 1:1 complex; type: physicochemical; conditions: pH 1-2
Procedure: Further tests to determine the optimum pH and molar ratios of iron:hydroxypyrone for synthesis of the 1:1 complex were carried out using iron:hydroxypyrone (maltol) ratios of 1:1.1, 1:1.15 and 1:1.25. For each ratio concentrations of 1M, 0.1M and 0.01M were tested. In the tests iron was used in an aqueous form.

[7] = system: red blood cell; experiment: Initial toxicity studies: red blood cell haemolysis; type: cell-based; conditions: liquid formulations
[8] = Stability of the 1:1 molar ratio complex of iron and hydroxypyrone (visual precipitates, UV-V spectroscopy); type: physicochemical
Procedure: Various solutions of iron (III),and hydroxypyrone (ethylmaltol) were buffered to pH 7 with 50 mM morpholine propane sulphonate (MOPS) 50 mM, to pH 5 with sodium acetate (50 mM) and to pH 3 with glycine (50 mM). Iron III nitrate 9 H2O was used as a source of iron.

Cc1occc(=O)c1O [Maltol, 3-hydroxy-2-methyl-4-pyrone]
Liver Fe ([1]; iron concentration, µg per g liver): 118.8 µg/g and 113.2 µg/g and 87.3 µg/g and 165.8 µg/g and 149.2 µg/g and 123.4 µg/g
Liver Fe ([1]; total iron, mg per liver): 1.44 mg/liver and 1.14 mg/liver and 0.86 mg/liver and 1.87 mg/liver and 1.69 mg/liver and 1.25 mg/liver
Liver Fe, MEAN ([1]; mean of 6 animals (control 1.06 ± 0.25)): 1.38 ± 0.37 mg/liver
Liver Fe, MEAN ([1]; mean of 6 animals (control 120.1 ± 30.2)): 126.3 ± 27.7 µg/g
change in liver iron content versus control ([1]; rats, maltol 50 mg/kg by gavage): small but significant increase

Cc1occc(=O)c1[O-].[Cl-].[Cl-].[Fe+3] [ferric maltol chloride]
Iron concentration [Fe] (s.d.) in serum ([2]; time 0 min, n = 2): 1188.81 (17.57) ppb
Iron concentration [Fe] (s.d.) in serum ([2]; time 20 min, n = 2): 1387.66 (63.08) ppb
Iron concentration [Fe] (s.d.) in serum ([2]; time 60 min, n = 2): 1600.62 (115.83) ppb
Iron concentration [Fe] (s.d.) in serum ([2]; time 120 min, n = 1): 1312.74 (0) (n = 1) ppb

Cc1occc(=O)c1[O-].O=C([O-])CC(O)(CC(=O)O)C(=O)[O-].[Fe+3] [ferric monomaltol citrate]
iron conc (plasma) ([3]; 30 mg as iron in 5 ml water, fasted 24 hours): 1.2 µg/mL
iron conc (plasma) ([3]; 30 mg as iron): 21.8 µmol/L

Cc1occc(=O)c1[O-].[Fe+3] [ferric monomaltol]
stability in solution [4]: stability for extended periods (for example six months)
natural pH ([4]; solution): approximately 2.8
solubility relative to the 1:3 iron/hydroxypyrone molar ratio complex [5]: approximately ten times more soluble
solubility ([5]; pH 1-2): very soluble
iron uptake ([2]; in vivo, po): taken up well
proportion of the solution that comprises the 1:1 complex [6]: ~80%
red blood cell haemolysis and breakdown [7]: do not cause red blood cell haemolysis and red blood cell breakdown

O=S(=O)([O-])[O-].[Fe+2] [ferrous sulphate, reference compound]
stability in solution [4]: precipitate very rapidly

CCc1occc(=O)c1[O-].[Fe+3] [iron ethyl maltol]
stability of solutions ([8]; 0.1M, 0.01M and 0.001M, pH 3, 5 and 7): stable for up to two months
formation of ferric triethylmaltol (1:3 complex) ([8]; wide concentration range, up to pH 7): no ferric triethylmaltol is found even at pH 7
solubility relative to the 1:3 iron/hydroxypyrone molar ratio complex [5]: approximately ten times more soluble
